From US8476265B2, “Compounds-801” (AstraZeneca AB, priority 2010, dated 2013)

How the values were obtained:
[1] = biological target: T1, human muscarinic acetylcholine M3 receptor (Homo sapiens, UniProt P20309); test: Muscarinic 3 receptor binding assay ([3H]NMS competition, SPA), single concentration 1 μM; conditions: 1 μM compound; % inhibition specific [3H]-NMS binding
T1 construct: expressed in transfected cells; host or cells: CHO-K1 (Chinese Hamster Ovary) cell membranes
Procedure, shortened: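 CHO-K1 membranes expressing human M3 on SPA beads, competition with 0.1 nM [3H]NMS (quarter Kd) in 20 mM HEPES pH 7.4, 5 mM MgCl2, 0.1% BSA, 1% DMSO; compound at 1 μM. 16 h at room temperature. Value is % inhibition of specific binding, non-specific defined with 1 μM atropine.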

[2] = biological target: T1, human muscarinic acetylcholine M3 receptor; test: Muscarinic 3 receptor binding assay ([3H]NMS competition, SPA), pIC50; conditions: [3H]NMS 0.1 nM, CHO-K1 cell membranes expressing human M3 receptor
Procedure, shortened: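 SPA beads precoated with human M3-expressing CHO-K1 membranes were incubated 16 h at room temperature with serially diluted compound and 0.1 nM [3H]NMS (pH 7.4 HEPES buffer, MgCl2, BSA, 1% DMSO). Atropine (1 μM) defined non-specific binding; pIC50 is the 50% reduction in specific binding.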

Adrenergic β2 [3] = biological target: T2, Adrenergic β2 (Homo sapiens, UniProt P07550); test: Adrenergic β2 mediated cAMP production in H292 cells, single concentration 1 μM; type: cell-based; conditions: NCI-H292, 1 μM compound, cAMP as percentage of the maximum response generated by 1E-07M formoterol, read-out: β2 % effect @1 uM
T2 construct: Adherent H292 cells are removed from tissue culture flasks by treatment with Accutase™ cell detachment solution; endogenous in cells; host or cells: H292 cells
Procedure, shortened: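 H292 cells pretreated with rolipram (300 μM final) 10 min, then compound at 1 μM final, 1% DMSO, 60 min at room temperature in HBSS/10 mM HEPES pH 7.4/5 mM glucose. Lysate cAMP quantified by AlphaScreen against a standard curve, as % of maximal response to 1E-07M formoterol.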

Adrenergic β2 [4] = biological target: T2, Adrenergic β2; test: Adrenergic β2 mediated cAMP production in H292 cells (AlphaScreen), concentration response; type: cell-based; conditions: for EC50: 60 min, 300 μM rolipram, read-out: β2 pEC50 (converted); for β2 Intrinsic Activity: fraction relative to the maximum activity determined for formoterol
Procedure, shortened: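 Intracellular cAMP in lysates read by AlphaScreen, calibrated with cAMP standards; curves fitted for pEC50, with intrinsic activity as a fraction of formoterol's maximum. Agonist exposure 60 min at room temperature after 10 min rolipram (300 μM final), 1% DMSO, HEPES-buffered HBSS pH 7.4.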

T1 sequence (P20309 whole entry): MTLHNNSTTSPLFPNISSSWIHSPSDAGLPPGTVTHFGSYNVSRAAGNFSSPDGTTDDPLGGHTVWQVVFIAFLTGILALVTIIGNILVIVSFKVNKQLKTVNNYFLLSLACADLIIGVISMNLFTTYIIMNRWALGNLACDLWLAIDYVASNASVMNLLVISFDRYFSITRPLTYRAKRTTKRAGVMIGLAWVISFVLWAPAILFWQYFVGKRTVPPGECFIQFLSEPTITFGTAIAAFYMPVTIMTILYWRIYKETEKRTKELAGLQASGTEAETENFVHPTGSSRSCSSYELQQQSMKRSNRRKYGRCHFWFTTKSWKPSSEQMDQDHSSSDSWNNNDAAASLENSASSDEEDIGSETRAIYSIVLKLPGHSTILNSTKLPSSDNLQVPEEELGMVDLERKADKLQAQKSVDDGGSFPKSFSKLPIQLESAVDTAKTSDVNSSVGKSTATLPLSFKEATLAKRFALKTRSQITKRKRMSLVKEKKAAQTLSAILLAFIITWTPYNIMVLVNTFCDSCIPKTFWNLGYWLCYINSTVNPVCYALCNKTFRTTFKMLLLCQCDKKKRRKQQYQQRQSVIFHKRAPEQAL
T2 sequence (P07550 whole entry): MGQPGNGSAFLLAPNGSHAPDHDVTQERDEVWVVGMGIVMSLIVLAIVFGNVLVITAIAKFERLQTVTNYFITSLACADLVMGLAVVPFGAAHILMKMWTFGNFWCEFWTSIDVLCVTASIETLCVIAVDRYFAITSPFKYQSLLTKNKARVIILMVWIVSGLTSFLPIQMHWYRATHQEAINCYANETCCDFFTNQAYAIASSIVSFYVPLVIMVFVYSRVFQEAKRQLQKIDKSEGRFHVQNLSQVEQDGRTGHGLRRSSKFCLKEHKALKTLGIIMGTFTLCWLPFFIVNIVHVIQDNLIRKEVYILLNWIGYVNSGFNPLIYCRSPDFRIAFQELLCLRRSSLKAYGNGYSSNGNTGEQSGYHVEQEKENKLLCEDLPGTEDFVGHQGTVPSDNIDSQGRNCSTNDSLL

SMILES | inhibition at 1 µM [1] | IC50 [2] | percent of formoterol maximum response at 1 µM (Adrenergic β2 [3]) | EC50 (Adrenergic β2 [4]) | β2 Intrinsic Activity (Adrenergic β2 [4])
CCCCc1nc(C(=O)N2CCOC3(CCN(Cc4cccc(CCOCCC(=O)N(CCNCCc5ccc(O)c6c5OCC(=O)N6)C5CCCCC5)c4)CC3)C2)cs1 [Example 175, 3-(3-((4-(2-Butylthiazole-4-carbonyl)-1-oxa-4,9-diazaspiro[5.5]undecan-9-yl)methyl)phenethoxy)-N-cyclohexyl-N-(2-(2-(5-hydroxy-3-oxo-3,4-dihydro-2H-benzo[b][1,4]oxazin-8-yl)ethylamino)ethyl)propanamide] | 100% | 0.316 nM | 86% | 63.1 nM | 1.0
Cc1ccoc1C(=O)N1CCOC2(CCN(Cc3cccc(CCOCCC(=O)N(CCNCCc4ccc(O)c5c4OCC(=O)N5)C4CCCCC4)c3)CC2)C1 [Example 159, N-Cyclohexyl-N-(2-(2-(5-hydroxy-3-oxo-3,4-dihydro-2H-benzo[b][1,4]oxazin-8-yl)ethylamino)ethyl)-3-(3-((4-(3-methylfuran-2-carbonyl)-1-oxa-4,9-diazaspiro[5.5]undecan-9-yl)methyl)phenethoxy)propanamide] | 100% | 1.26 nM | 87% | 79.4 nM | 0.9
O=C1COc2c(CCNCCN(C(=O)CCOCCc3cccc(CN4CCC5(CC4)CN(C(=O)c4csc(CC(F)(F)F)n4)CCO5)c3)C3CCCCC3)ccc(O)c2N1 [Example 174, N-Cyclohexyl-N-(2-(2-(5-hydroxy-3-oxo-3,4-dihydro-2H-benzo[b][1,4]oxazin-8-yl)ethylamino)ethyl)-3-(3-((4-(2-(2,2,2-trifluoroethyl)thiazole-4-carbonyl)-1-oxa-4,9-diazaspiro[5.5]undecan-9-yl)methyl)phenethoxy)propanamide] | 100% | 0.251 nM | 88% | 50.1 nM | 1.0
O=C1COc2c(CCNCCN(C(=O)CCOCCc3cccc(CN4CCC5(CC4)CN(C(=O)c4ccc6cccnc6n4)CCO5)c3)C3CCCCC3)ccc(O)c2N1 [Example 161, 3-(3-((4-(1,8-Naphthyridine-2-carbonyl)-1-oxa-4,9-diazaspiro[5.5]undecan-9-yl)methyl)phenethoxy)-N-cyclohexyl-N-(2-(2-(5-hydroxy-3-oxo-3,4-dihydro-2H-benzo[b][1,4]oxazin-8-yl)ethylamino)ethyl)propanamide] | 100% | 0.501 nM | 97% | 39.8 nM | 1.0

More lines, now with the values ahead:

inhibition at 1 µM [1] | IC50 [2] | percent of formoterol maximum response at 1 µM (Adrenergic β2 [3]) | EC50 (Adrenergic β2 [4]) | β2 Intrinsic Activity (Adrenergic β2 [4]) | SMILES
100% | 0.158 nM | 100% | 39.8 nM | 1.0 | CCc1cc(C(=O)N2CCOC3(CCN(Cc4cccc(CCOCCC(=O)N(CCNCCc5ccc(O)c6c5OCC(=O)N6)C5CCCCC5)c4)CC3)C2)cs1 [Example 144, N-Cyclohexyl-3-(3-((4-(5-ethylthiophene-3-carbonyl)-1-oxa-4,9-diazaspiro[5.5]undecan-9-yl)methyl)phenethoxy)-N-(2-(2-(5-hydroxy-3-oxo-3,4-dihydro-2H-benzo[b][1,4]oxazin-8-yl)ethylamino)ethyl)propanamide]
101% | 1.58 nM | 97% | 63.1 nM | 0.8 | O=C1COc2c(CCNCCN(C(=O)CCOCCc3cccc(CN4CCC5(CC4)CN(C(=O)c4ccc6c(c4)OCO6)CCO5)c3)C3CCCCC3)ccc(O)c2N1 [Example 157, 3-(3-((4-(Benzo[d][1,3]dioxole-5-carbonyl)-1-oxa-4,9-diazaspiro[5.5]undecan-9-yl)methyl)phenethoxy)-N-cyclohexyl-N-(2-(2-(5-hydroxy-3-oxo-3,4-dihydro-2H-benzo[b][1,4]oxazin-8-yl)ethylamino)ethyl)propanamide]
101% | 0.316 nM | 101% | 100 nM | 1.0 | Cc1ccc(C(=O)N2CCOC3(CCN(Cc4cccc(CCOCCC(=O)N(CCNCCc5ccc(O)c6c5OCC(=O)N6)C5CCCCC5)c4)CC3)C2)s1 [Example 154, N-Cyclohexyl-N-(2-(2-(5-hydroxy-3-oxo-3,4-dihydro-2H-benzo[b][1,4]oxazin-8-yl)ethylamino)ethyl)-3-(3-((4-(5-methylthiophene-2-carbonyl)-1-oxa-4,9-diazaspiro[5.5]undecan-9-yl)methyl)phenethoxy)propanamide]
99% | 2.51 nM | 96% | 79.4 nM | 0.8 | O=C1COc2c(CCNCCN(C(=O)CCOCCc3cccc(CN4CCC5(CC4)CN(C(=O)c4cccc(Cl)c4)CCO5)c3)C3CCCCC3)ccc(O)c2N1 [Example 164, 3-(3-((4-(3-Chlorobenzoyl)-1-oxa-4,9-diazaspiro[5.5]undecan-9-yl)methyl)phenethoxy)-N-cyclohexyl-N-(2-(2-(5-hydroxy-3-oxo-3,4-dihydro-2H-benzo[b][1,4]oxazin-8-yl)ethylamino)ethyl)propanamide]
